# Laboratory results published in patent US9113625B2, “Adjuvant for agricultural chemicals” (CJB Industries, Inc., priority 2009, dated 2015).
# What was measured:
# Assay type in all cases: in vivo
# [1] = tested on: Early Blight (Alternaria solani); assay: Evaluation of fungicide in the treatment of Early Blight on tomatoes; details: inoculated tomato plants; Chlorothalonil 2.5 pt/ac, no adjuvant; rated after one week
# Method: This example evaluated the effectiveness of the fungicide chlorothalonil for the control of Early Blight on tomatoes. The fungicide was mixed with water in a spray tank at the listed rate treatment (A), or with a permeabilizer (B) and the degree of control of the Early Blight was evaluated. The tomato plants were inoculated with the fungi. The ratings were made after one week on the per cent leaves infected with Alternaria and also the number with severe damage—necrosis.
# [2] = tested on: Bacterial Leaf Spot (Xanthomonas campestris); assay: Effectiveness of a bactericide on bacterial leaf spot on tomatoes; details: inoculated tomato plants; Copper 2#/acre, no adjuvant; rated after two weeks
# Method: This example evaluated the effectiveness of the bactericide copper hydroxide for the control of bacterial leaf spot on tomatoes. The tomato plants were inoculated with the bacteria. The bactericide was mixed with water in a spray tank at the listed rate treatment (A), or with a permeabilizer (B) and the degree of control of the leaf spot was evaluated. The ratings were made after two weeks on the per cent leaves infected.
# [3] = tested on: fireblight on Southern Crepe Myrtle; assay: Effectiveness of bactericide streptomycin at controlling fireblight; details: infected plants sprayed until wet; rated after two days; adjuvant (B) at 500:1 dilution
# Method: This example evaluated the effectiveness of the bactericide streptomycin for the control of fireblight on Southern Crepe Myrtle. The bactericide was mixed with water in a spray tank at the listed rate treatment (A), or with a permeabilizer (B). The infected plants were treated with the bactericide by spraying until wet and the degree of control of the fireblight was evaluated. The ratings were made after two days on the rate required for control.
smiles,measurement,setting,value
"N#Cc1c(Cl)c(Cl)c(Cl)c(C#N)c1Cl [Chlorothalonil, chlorothalonil]",Infected Leaflets,[1],60%
same,Infected Leaves,[1],42%
same,Leaves with >50% Necrosis,[1],42%
"[Cu+2].[OH-].[OH-] [Copper, copper hydroxide]",% Leaves Infected,[2],63%
"[H]/N=C(/N)N[C@H]1[C@H](O)[C@@H](O)[C@H](O[C@@H]2O[C@@H](C)[C@](O)(C=O)[C@H]2O[C@@H]2O[C@@H](CO)[C@H](O)[C@@H](O)[C@@H]2NC)[C@@H](N/C(N)=N\[H])[C@@H]1O [Streptomycin, streptomycin]",Level of Control (rate required for control),[3],60 ppm
